According to patent US7915291B2, “Hepatitis C virus inhibitors” (Bristol-Myers Squibb Company, priority 2002, dated 2011):

What was measured:
[1] = target: HCV NS3/4A protease complex, BMS strain (UniProt P27958, C1454S/C1711G, species not given/STRAIN_BMS); test: Recombinant HCV NS3/4A protease complex FRET peptide assay (BMS strain); assay type: biochemical, HCV genotype 1a; conditions: NS3/4A BMS strain; read-out: IC50 range
Outline: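 Percent inhibition taken from the linear-range fluorescence slope relative to uninhibited control, read kinetically for about 15 min at 25° C. Enzyme (2-3 nM, BMS NS3/4A complex, lysine-tailed, Ni-NTA purified) met compound for 1 min before 2 μM FRET depsipeptide substrate started cleavage.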

[2] = system: HCV replicon in Huh7 cells; test: HCV replicon cell-based assay; set-up: species or system HCV strain 1B; conditions: Hepatitis C virus, Huh-7; HCV replicon, Huh7 cells; read-out: EC50 range

SMILES	IC50 [1]	EC50 [2]
C=CC1C[C@]1(NC(=O)[C@@H]1C[C@@H](Oc2cc(C(F)(F)F)nc3c(OC(F)(F)F)cccc23)CN1C(=O)[C@@H](NC(=O)OC(C)(C)C)C(C)(C)C)C(=O)NS(=O)(=O)C1CC1 (stereo partly drawn) [Compound 182, BOCNH-P3(L-tert-BuGly)-P2[(4R)-(2-trifluoromethyl, 8-trifluoromethoxy quinolin-4-oxo)-S-proline]-P1(1R,2S Vinyl Acca)-CONHSO2-Cyclopropane]	< 100 nM	100 to 1000 nM
C=CC1C[C@]1(NC(=O)[C@@H]1C[C@@H](Oc2cc(C(F)(F)F)nc3c(Cl)cccc23)CN1C(=O)[C@@H](NC(=O)OC(C)(C)C)C(C)(C)C)C(=O)NS(=O)(=O)C1CC1 (stereo partly drawn) [Compound 183, BOCNH-P3(L-tert-BuGly)-P2[(4R)-(2-trifluoromethyl, 8-chloro quinolin-4-oxo)-S-proline]-P1(1R,2S Vinyl Acca)-CONHSO2-Cyclopropane]	< 100 nM	< 100 nM
C=CC1C[C@]1(NC(=O)[C@@H]1C[C@@H](Oc2ccnc3cc(C(F)(F)F)ccc23)CN1C(=O)[C@@H](NC(=O)OC(C)(C)C)C(C)(C)C)C(=O)NS(=O)(=O)C1CC1 (stereo partly drawn) [Compound 185, BOCNH-P3(L-tert-BuGly)-P2[(4R)-(7-trifluoromethyl quinolin-4-oxo)-S-proline]-P1(1R,2S Vinyl Acca)-CONHSO2-Cyclopropane]	< 100 nM	< 100 nM
C=CC1C[C@]1(NC(=O)[C@@H]1C[C@@H](Oc2ccnc3c(C(F)(F)F)cccc23)CN1C(=O)[C@@H](NC(=O)OC(C)(C)C)C(C)(C)C)C(=O)NS(=O)(=O)C1CC1 (stereo partly drawn) [Compound 186, BOCNH-P3(L-tert-BuGly)-P2[(4R)-(8-trifluoromethyl quinolin-4-oxo)-S-proline]-P1(1R,2S Vinyl Acca)-CONHSO2-Cyclopropane]	< 100 nM	< 100 nM
C=CC1C[C@]1(NC(=O)[C@@H]1C[C@@H](Oc2nccc3cc(F)ccc23)CN1C(=O)[C@@H](NC(=O)OC(C)(C)C)C(C)(C)C)C(=O)NS(=O)(=O)C1CC1 (stereo partly drawn) [Compound 187, BOCNH-P3(L-tert-BuGly)-P2[(4R)-(6-fluoro isoquinolin-1-oxo)-S -proline]-P1(1R,2S Vinyl Acca)-CONHSO2-Cyclopropane]	< 100 nM	100 to 1000 nM
C=CC1C[C@]1(NC(=O)[C@@H]1C[C@@H](Oc2ccc3c(Cl)nccc3c2)CN1C(=O)[C@@H](NC(=O)OC(C)(C)C)C(C)(C)C)C(=O)NS(=O)(=O)C1CC1 (stereo partly drawn) [Compound 188, BOCNH-P3(L-tert-BuGly)-P2[(4R)-(1-chloro isoquinolin-6-oxo)-S -proline]-P1(1R,2S Vinyl Acca)-CONHSO2-Cyclopropane]	< 100 nM	100 to 1000 nM
C=CC1C[C@]1(NC(=O)[C@@H]1C[C@@H](Oc2nccc3cc(CC)ccc23)CN1C(=O)[C@@H](NC(=O)OC(C)(C)C)C(C)(C)C)C(=O)NS(=O)(=O)C1CC1 (stereo partly drawn) [Compound 189, BOCNH-P3(L-tert-BuGly)-P2[(4R)-(6-ethyl isoquinolin-1-oxo)-S -proline]-P1(1R,2S Vinyl Acca)-CONHSO2-Cyclopropane]	< 100 nM	100 to 1000 nM
C=CC1C[C@]1(NC(=O)[C@@H]1C[C@@H](Oc2nccc3cc(C(C)C)ccc23)CN1C(=O)[C@@H](NC(=O)OC(C)(C)C)C(C)(C)C)C(=O)NS(=O)(=O)C1CC1 (stereo partly drawn) [Compound 190, BOCNH-P3(L-tert-BuGly)-P2[(4R)-(6-isopropyl isoquinolin-1-oxo)-S-proline]-P1(1R,2S Vinyl Acca)-CONHSO2-Cyclopropane]	< 100 nM	100 to 1000 nM
C=CC1C[C@]1(NC(=O)[C@@H]1C[C@@H](Oc2nccc3cc(C(C)(C)C)ccc23)CN1C(=O)[C@@H](NC(=O)OC(C)(C)C)C(C)(C)C)C(=O)NS(=O)(=O)C1CC1 (stereo partly drawn) [Compound 191, BOCNH-P3(L-tert-BuGly)-P2[(4R)-(6-tert-butyl isoquinolin-1-oxo)-S-proline]-P1(1R,2S Vinyl Acca)-CONHSO2-Cyclopropane]	< 100 nM	100 to 1000 nM
C=CC1C[C@]1(NC(=O)[C@@H]1C[C@@H](Oc2nccc3cc(OC(C)C)ccc23)CN1C(=O)[C@@H](NC(=O)OC(C)(C)C)C(C)(C)C)C(=O)NS(=O)(=O)C1CC1 (stereo partly drawn) [Compound 192, BOCNH-P3(L-tert-BuGly)-P2[(4R)-(6-isopropoxy isoquinolin-1-oxo)-S-proline]-P1(1R,2S Vinyl Acca)-CONHSO2-Cyclopropane]	< 100 nM	< 100 nM
C=CC1C[C@]1(NC(=O)[C@@H]1C[C@@H](Oc2nccc3cc(OC(C)(C)C)ccc23)CN1C(=O)[C@@H](NC(=O)OC(C)(C)C)C(C)(C)C)C(=O)NS(=O)(=O)C1CC1 (stereo partly drawn) [Compound 193, BOCNH-P3(L-tert-BuGly)-P2[(4R)-(6-tert-butoxy isoquinolin-1-oxo)-S-proline]-P1(1R,2S Vinyl Acca)-CONHSO2-Cyclopropane]	< 100 nM	100 to 1000 nM
C=CC1C[C@]1(NC(=O)[C@@H]1C[C@@H](Oc2nncc3ccccc23)CN1C(=O)[C@@H](NC(=O)OC(C)(C)C)C(C)(C)C)C(=O)NS(=O)(=O)C1CC1 (stereo partly drawn) [Compound 194, BOCNH-P3(L-tert-BuGly)-P2[(4R)-(phthalazine-1-oxo)-S-proline]-P1(1R,2S Vinyl Acca)-CONHSO2-Cyclopropane]	< 100 nM	100 to 1000 nM
C=CC1C[C@]1(NC(=O)[C@@H]1C[C@@H](Oc2nnc(Cl)c3ccccc23)CN1C(=O)[C@@H](NC(=O)OC(C)(C)C)C(C)(C)C)C(=O)NS(=O)(=O)C1CC1 (stereo partly drawn) [Compound 195, BOCNH-P3(L-tert-BuGly)-P2[(4R)-(4-chloro phthalazine-1-oxo)-S -proline]-P1(1R,2S Vinyl Acca)-CONHSO2-Cyclopropane]	< 100 nM	< 100 nM
C=CC1C[C@]1(NC(=O)[C@@H]1C[C@@H](Oc2nnc(-n3ccnc3)c3ccccc23)CN1C(=O)[C@@H](NC(=O)OC(C)(C)C)C(C)(C)C)C(=O)NS(=O)(=O)C1CC1 (stereo partly drawn) [Compound 196, BOCNH-P3(L-tert-BuGly)-P2[(4R)-(4-(imidazo-1-yl)phthalazine-1-oxo)-S-proline]-P1(1R,2S Vinyl Acca)-CONHSO2-Cyclopropane]	< 100 nM	1000 to 10000 nM
C=CC1C[C@]1(NC(=O)[C@@H]1C[C@@H](Oc2nnc(-n3ccnc3)c3ccccc23)CN1C(=O)[C@@H](N)C(C)(C)C)C(=O)NS(=O)(=O)C1CC1 (stereo partly drawn) [Compound 197, NH2—P3(L-tert-BuGly)-P2[(4R)-(4-(imidazo-1-yl)phthalazine-1-oxo)-S-proline]-P1(1R,2S Vinyl Acca)-CONHSO2-Cyclopropane]	100 to 1000 nM	10000 to 100000 nM
C=CC1C[C@]1(NC(=O)[C@@H]1C[C@@H](Oc2nnc(-n3cncn3)c3ccccc23)CN1C(=O)[C@@H](NC(=O)OC(C)(C)C)C(C)(C)C)C(=O)NS(=O)(=O)C1CC1 (stereo partly drawn) [Compound 198, BOCNH-P3(L-tert-BuGly)-P2[(4R)-(4-(1,2,4-triazo-1-yl)phthalazine-1-oxo)-S-proline]-P1(1R,2S Vinyl Acca)-CONHSO2-Cyclopropane]	< 100 nM	100 to 1000 nM
C=CC1C[C@]1(NC(=O)[C@@H]1C[C@@H](Oc2nnc(OC(C)C)c3ccccc23)CN1C(=O)[C@@H](NC(=O)OC(C)(C)C)C(C)(C)C)C(=O)NS(=O)(=O)C1CC1 (stereo partly shown) [Compound 199]	< 100 nM	100 to 1000 nM
C=CC1C[C@]1(NC(=O)[C@@H]1C[C@@H](Oc2nnc(OCC)c3ccccc23)CN1C(=O)[C@@H](NC(=O)OC(C)(C)C)C(C)(C)C)C(=O)NS(=O)(=O)C1CC1 (stereo partly drawn) [Compound 200, BOCNH-P3(L-t-BuGly)-P2-[(4R)-(4-ethoxyphthalazine-1-oxo)-S-proline]-P1(1R,2S VinylAcca)-CONHSO2Cyclopropane]	< 100 nM	< 100 nM
C=CC1C[C@]1(NC(=O)[C@@H]1C[C@@H](Oc2nnc(OC)c3ccccc23)CN1C(=O)[C@@H](NC(=O)OC(C)(C)C)C(C)(C)C)C(=O)NS(=O)(=O)C1CC1 (stereo partly drawn) [Compound 201, BOCNH-P3(L-t-BuGly)-P2-[(4R)-(4-methoxyphthalazine-1-oxo)-S -proline]-P1(1R,2S VinylAcca)-CONHSO2Cyclopropane]	< 100 nM	< 100 nM
C=CC1C[C@]1(NC(=O)[C@@H]1C[C@@H](Oc2nnc(O)c3ccccc23)CN1C(=O)[C@@H](NC(=O)OC(C)(C)C)C(C)(C)C)C(=O)NS(=O)(=O)C1CC1 (stereo partly drawn) [Compound 202, BOCNH-P3(L-t-BuGly)-P2[(4R)-(4-hydroxyphthalazine-1-oxo)-S -proline]P1(1R,2S VinylAcca)-CONHSO2Cyclopropane]	< 100 nM	1000 to 10000 nM
C=CC1C[C@]1(NC(=O)[C@@H]1C[C@@H](Oc2ccc3c(Cl)nccc3c2SCCC)CN1C(=O)[C@@H](NC(=O)OC(C)(C)C)C(C)(C)C)C(=O)NS(=O)(=O)C1CC1 (stereo partly drawn) [Compound 204, BOCNH-P3(L-t-BuGly)-P2[(4R)-(1-Chloro-5propylthio -isoquinolin-6-oxo)-S-proline]-P1(1R,2S VinylAcca)-CONHSO2Cyclopropane]	< 100 nM	100 to 1000 nM
C=CC1C[C@]1(NC(=O)[C@@H]1C[C@@H](Oc2nccc3c(SCCC)c(OCC)ccc23)CN1C(=O)[C@@H](NC(=O)OC(C)(C)C)C(C)(C)C)C(=O)NS(=O)(=O)C1CC1 (stereo partly drawn) [Compound 206, BOCNH-P3(L-t-BuGly)-P2[(4R)-(6-ethoxy-5propylthio -isoquinoline-1-oxo)-S-proline]-P1(1R,2S VinylAcca)-CONHSO2Cyclopropane]	< 100 nM	< 100 nM
C=CC1C[C@]1(NC(=O)[C@@H]1C[C@@H](Oc2nccc3c(SC)c(OC)ccc23)CN1C(=O)[C@@H](NC(=O)OC(C)(C)C)C(C)(C)C)C(=O)NS(=O)(=O)C1CC1 (stereo partly drawn) [Compound 207, BOCNH-P3(L-t-BuGly)-P2 [(4R)-(6-methoxy-5-methylthio-isoquinolin-1-oxo)-S-proline]-P1(1R,2S VinylAcca)-CONHSO2Cyclopropane]	< 100 nM	< 100 nM
